Source: patent US10869846B2, “N-acetylcysteine amide (NAC amide) in the treatment of diseases and conditions associated with oxidative stress” (SENTIENT LIFESCIENCES, INC., priority 2005, dated 2020)
Several values for one entry are separate records, joined by “and”; a condition that tells them apart may be missing. Equal values may be shown once. Marks after values point to notes of the source that are not given here.

How the values were obtained:
Assay type in all cases: in vivo, rat
Sprague Dawley rats [1] = assay: Catalase activities in tissues after 6Gy total-body x-ray radiation; conditions: KIDNEY, 500 mg/kg orally; for Catalase level: individual animals; for Catalase Mean: n = 3
Sprague-Dawley rats = assay: Survival after whole body single-dose X-ray irradiation (9 Gy); conditions: for survival rate versus XRT alone: pre-treated before XRT
Excerpt: This Example describes a study observing the survival of rats receiving whole body, single-dose irradiation by X-rays (XRT) in the presence or absence of NAC or NAC amide (TOVA). In this experiment, thirty-nine female Sprague-Dawley rats ranging from about 150-200 g were subjected to total body, single-dose X-ray irradiation (9 Gy, 16 Mev). The same groups were designated to receive either NAC or TOVA. For the pre-treatment groups (n=6 in each group), the first treatment of NAC or TOVA was administered 30 minutes to 1 hour before irradiation. For the post-pretreatment groups (n=6 in each group), the first treatment of NAC or TOVA was administered 30 minutes to 1 hour after the irradiation. For groups receiving NAC or TOVA, the same amount (500 mg/kg NAC or TOVA daily) was administered for 4 or 5 consecutive days.
Group 1 was a control group (n=3), where rats received the same amount of saline solution daily for 5 consecutive days without XRT. Group 2 rats received NAC only (n=3) at an amount of 500 mg/kg body weight NAC daily for 5 consecutive days without XRT. Group 3 rats received TOVA only (n=3) at an amount of 500 mg/kg body weight TOVA daily for 5 consecutive days without XRT. Group 4 rats received radiation (XRT) only (n=6) and received the same amount of saline solution daily for 5 consecutive days after single dose total-body XRT irradiation.
Group 5 rats received one treatment of NAC at 500 mg/kg body weight before XRT (XRT+NAC pre-treated), which was then followed by 500 mg/kg body weight NAC daily for 4 consecutive days after XRT. Group 6 rats received XRT, followed by daily doses of NAC at 500 mg/kg body weight for 5 consecutive days after XRT (XRT+NAC post-treated). Group 7 rats […] at 500 mg/kg body weight before XRT (XRT+TOVA pre-treated), which was then followed by 500 mg/kg body weight TOVA daily for 4 consecutive days after XRT. Group 8 rats received XRT, followed by daily doses of TOVA at 500 mg/kg body weight for 5 consecutive days after XRT (XRT+TOVA post-treated). All rats were then given a normal diet post-treatment.
The rats were observed twice a day, and the survival status of rats in each group will be recorded. The mean survival days were calculated for each group and compared to the survival differences of the three groups of rats at the end of the experiment. The radioprotective effects of NAC and TOVA treatment on the survival of those irradiated rats were then evaluated, as shown in the following tables.

Sprague Dawley rats [2] = assay: Catalase activities in tissues after 6Gy total-body x-ray radiation; conditions: 500 mg/kg orally; for Catalase level: individual animals; for Catalase Mean: n = 3
Description: Animal studies: The irradiation of rats was performed at the Radiation Oncology Department of the Phelps County Regional Medical Center in Rolla, Mo., using a 16 MeV beam generated by a Varian linear accelerator, model Clinac 1800, and in accordance with the standards of humane laboratory animal protocols. A 20×20 or 25×25 cm field was used and output factors were checked once a week. Twelve animals were divided into 4 groups each containing 3 animals (Control, XRT, NAC amide+XRT and NAC+XRT). The radiation (XRT) control received whole body irradiation by 6 Gy of 16 MeV electrons. The NAC amide+XRT group received 500 mg/kg/day NAC amide immediately before irradiation and for three days after until sacrifice. The rats were anesthetized and heparinized blood was collected via cardiopuncture. Following sacrifice, liver, lung, brain and spleen were removed and stored at −70° C. until homogenization.
All experiments were performed using adult Albino SASCO Sprague Dawley female rats weighing about 250 g, which were purchased from Charles River Laboratories Inc. (Portage, Mich.). Twelve rats were shipped in paper crates (4 in each crate). Rats were delivered with a certificate including serological, bacteriological, pathological parasitological information. They were divided into 4 cages (3 rats in each cage) and kept in a temperature controlled (20° C.) room equipped to maintain a 12 h light-dark cycle. Standard rat chow (Purina rat chow) and tap water were supplied in individual glass bottle and given ad libitum. Water was changed daily. Weights of the animal were taken before giving the NAC amide treatment solution and amount of food eaten and water consumed was not measured because NAC amide was given orally but not in the drinking water or food.
NAC amide was provided by Novetide Ltd (Haifa Bay, Israel) including certificate of analysis and MSDS (lot #40233-64). NAC amide feeding solution was prepared freshly each day right before the administration by weighing 1.25 g NAC amide solid sample (Type HR-120 electronic balance, A&D Company limited, Japan. S/N: 12202464) and adding into 10 ml PBS solution and put on ice. One ml of this solution was administrated (gavaged) per rat orally by using animal feeding biomedical needles and 3 ml BD Luer-Lok Tip syringes. Rats received one-dose total-body 6 Gy/16 MeV x-ray radiation and 3 rats in each group were held in a covered bucket and received radiation at the same time. Each day at the same time, 500 mg/Kg body weight of NAC amide was administrated to the animals.
In assay solution, k(enzyme activity)= 1/60*ln(A0/A60)*(Total Volume of reaction/volume of sample) A0—Absorbance at 0 second A60—Absorbance at 60 second In sample, K(specific activity)=k/protein concentration.
Enzyme Activity Assays: Catalase (CAT) activity was determined spectrophotometrically and was expressed in kunits/mg protein and kunits/10^6 cells as described by M. Bradford, Anal. Biochem., 72:248-256 (1976).

[3] = Table 15, XRT 9 Gy, post-treated
[4] = Table 15, XRT 9 Gy, pre-treated
[5] = Table 15, compound only, no XRT
[6] = Table 16, XRT 9 Gy, post-treated
[7] = Table 16, XRT 9 Gy, pre-treated
[8] = Table 16, compound only, no XRT
[9] = XRT 9 Gy, post-treated, 500 mg/kg daily, n = 6, 2nd time
[10] = XRT 9 Gy, pre-treated, 500 mg/kg daily, n = 6, 1st time
[11] = XRT 9 Gy, pre-treated, 500 mg/kg daily, n = 6, 2nd time
[12] = compound only, no XRT, 500 mg/kg daily 5 days, 2nd time

Compound: CC(=O)N[C@@H](CS)C(=O)O [NAC, N-acetylcysteine]
- Catalase level (Sprague Dawley rats [1]; 500 mg/kg): 5.85 mU/mg and 3.02 mU/mg and 4.36 mU/mg
- Catalase Mean (Sprague Dawley rats [1]): 4.41 mU/mg
- percentage survival rate (Sprague-Dawley rats; [3]): 33.3%
- percentage survival rate (Sprague-Dawley rats; [4]): 83.3%
- percentage survival rate (Sprague-Dawley rats; [5]): 100%
- percentage survival rate (Sprague-Dawley rats; [6]): 33.3%
- percentage survival rate (Sprague-Dawley rats; [7]): 83.3%
- percentage survival rate (Sprague-Dawley rats; [8]): 100%
- # of animals dead (Sprague-Dawley rats; [9]): 4
- # of animals survived (Sprague-Dawley rats; [9]): 2
- # of animals dead (Sprague-Dawley rats; [10]): 1
- # of animals survived (Sprague-Dawley rats; [10]): 5
- # of animals dead (Sprague-Dawley rats; [11]): 1
- # of animals survived (Sprague-Dawley rats; [11]): 5
- # of animals dead (Sprague-Dawley rats; [12]): 0
- # of animals survived (Sprague-Dawley rats; [12]): 2
- survival rate versus XRT alone (Sprague-Dawley rats): higher survival rate
- Catalase level (Sprague Dawley rats [2]; LIVER, 500 mg/kg): 75.22 mU/mg and 69.09 mU/mg and 69.00 mU/mg
- Catalase Mean (Sprague Dawley rats [2]; LIVER): 71.11*** mU/mg
- Catalase level (Sprague Dawley rats [2]; LUNG, 500 mg/kg): 2.12 mU/mg and 0.79 mU/mg and 0.48 mU/mg
- Catalase Mean (Sprague Dawley rats [2]; LUNG): 1.13 mU/mg

Compound: N-acetylcysteine amide [NAC amide]
- Catalase level (Sprague Dawley rats [1]; listed as AD4, 500 mg/kg): 3.89 mU/mg and 3.46 mU/mg and 4.56 mU/mg
- Catalase Mean (Sprague Dawley rats [1]): 3.97** mU/mg
- percentage survival rate (Sprague-Dawley rats; [3]): 66.7%
- percentage survival rate (Sprague-Dawley rats; [4]): 100%
- percentage survival rate (Sprague-Dawley rats; [5]): 100%
- percentage survival rate (Sprague-Dawley rats; [6]): 66.7%
- percentage survival rate (Sprague-Dawley rats; [7]): 100%
- percentage survival rate (Sprague-Dawley rats; [8]): 100%
- # of animals dead (Sprague-Dawley rats; [9]): 2
- # of animals survived (Sprague-Dawley rats; [9]): 4
- # of animals dead (Sprague-Dawley rats; [10]): 0
- # of animals survived (Sprague-Dawley rats; [10]): 6
- # of animals dead (Sprague-Dawley rats; [11]): 0
- # of animals survived (Sprague-Dawley rats; [11]): 6
- # of animals dead (Sprague-Dawley rats; [12]): 0
- # of animals survived (Sprague-Dawley rats; [12]): 3
- survival rate versus XRT alone (Sprague-Dawley rats): higher survival rate
- Catalase level (Sprague Dawley rats [2]; LIVER, listed as AD4, 500 mg/kg): 69.63 mU/mg and 57.88 mU/mg and 50.33 mU/mg
- Catalase Mean (Sprague Dawley rats [2]; LIVER): 59.28** mU/mg
- Catalase level (Sprague Dawley rats [2]; LUNG, listed as AD4, 500 mg/kg): 1.02 mU/mg and 0.53 mU/mg
- Catalase level (Sprague Dawley rats [2]; LUNG, listed as ND4, 500 mg/kg): 0.50 mU/mg
- Catalase Mean (Sprague Dawley rats [2]; LUNG): 0.68** mU/mg
